Assay type in all cases: functional, organism-based
The subject of assay [1] is Rattus norvegicus. Briefly: Antiosteoporotic effect in OVX-induced Wistar rat osteoporosis model assessed as increase in serum calcium level at 1 mg/kg/day, ig administered for 2 weeks by colorimetric method relative to control.
The subject of assay [2] is Rattus norvegicus. Briefly: Antiosteoporotic effect in OVX-induced Wistar rat osteoporosis model assessed as decrease in serum ALP level at 1 mg/kg/day, ig administered for 2 weeks by colorimetric method relative to control.
The subject of assay [3] is Rattus norvegicus. In words: Antiosteoporotic effect in OVX-induced Wistar rat osteoporosis model assessed as decrease in serum TRAP level at 1 mg/kg/day, ig administered for 2 weeks by colorimetric method relative to control.
Assay [4] has as its system Rattus norvegicus. In words: Antiosteoporotic effect in OVX-induced Wistar rat osteoporosis model assessed as increase in serum estradiol level at 1 mg/kg/day, ig administered for 2 weeks by RIA relative to control.
Assay [5] concerns Rattus norvegicus. Briefly: Antiosteoporotic effect in OVX-induced Wistar rat osteoporosis model assessed as increase in serum calcitonin level at 1 mg/kg/day, ig administered for 2 weeks by RIA relative to control.
Assay [6] has as its system Rattus norvegicus. Briefly: Antiosteoporotic effect in OVX-induced Wistar rat osteoporosis model assessed as decrease in serum CTX level at 1 mg/kg/day, ig administered for 2 weeks by ELISA relative to control. In general terms: In an ELISA, binding on a coated surface is turned into a signal by an enzyme label.
In assay [7] the test system is Rattus norvegicus. Briefly: Antiosteoporotic effect in OVX-induced Wistar rat osteoporosis model assessed as decrease in urinary DPD/Cr level at 1 mg/kg/day, ig administered for 2 weeks by ELISA relative to control. Particulars: Urine.
Assay [8] concerns Rattus norvegicus. Briefly: Antiosteoporotic effect in OVX-induced Wistar rat osteoporosis model assessed as increase in femur wet weight at 1 mg/kg/day, ig administered for 2 weeks relative to control.
The test system of assay [9] is Rattus norvegicus. Briefly: Antiosteoporotic effect in OVX-induced Wistar rat osteoporosis model assessed as increase in femur dry weight at 1 mg/kg/day, ig administered for 2 weeks relative to control.
In assay [10] the test system is Rattus norvegicus. Briefly: Antiosteoporotic effect in OVX-induced Wistar rat osteoporosis model assessed as increase in femur ash weight at 1 mg/kg/day, ig administered for 2 weeks relative to control.
Assay [11] concerns Rattus norvegicus. Briefly: Antiosteoporotic effect in OVX-induced Wistar rat osteoporosis model assessed as increase in bone calcium content at 1 mg/kg/day, ig administered for 2 weeks by flame atomic absorption spectroscopy relative to control.
For assay [12], the system named is Rattus norvegicus. In words: Antiosteoporotic effect in OVX-induced Wistar rat osteoporosis model assessed as increase in bone mineral density of left femur at 1 mg/kg/day, ig administered for 2 weeks by dual-energy X-ray absorptiometry relative to control.
Assay [13] has as its system Rattus norvegicus. Briefly: Antiosteoporotic effect in OVX-induced Wistar rat osteoporosis model assessed as increase in bone mineral content of left femur at 1 mg/kg/day, ig administered for 2 weeks by dual-energy X-ray absorptiometry relative to control.
Assay [14] has as its system Rattus norvegicus. In words: Antiosteoporotic effect in OVX-induced Wistar rat osteoporosis model assessed as increase in bone mineral density of third lumbar vertebra at 1 mg/kg/day, ig administered for 2 weeks by dual-energy X-ray absorptiometry relative to control.
Assay [15] deals with Rattus norvegicus. Briefly: Antiosteoporotic effect in OVX-induced Wistar rat osteoporosis model assessed as increase in bone mineral content of third lumbar vertebra at 1 mg/kg/day, ig administered for 2 weeks by dual-energy X-ray absorptiometry relative to control.
Assay [16] relates to Rattus norvegicus. Briefly: Antiosteoporotic effect in OVX-induced Wistar rat osteoporosis model assessed as increase in ultimate load of left femur at 1 mg/kg/day, ig administered for 2 weeks by […] relative to control.
For assay [17], the system named is Rattus norvegicus. Briefly: Antiosteoporotic effect in OVX-induced Wistar rat osteoporosis model assessed as increase in ultimate load of third lumbar vertebra at 1 mg/kg/day, ig administered for 2 weeks by […] relative to control.
Assay [18] has as its system Rattus norvegicus. Briefly: Antiosteoporotic effect in OVX-induced Wistar rat osteoporosis model assessed as increase in trabecular thickness in left femur at 1 mg/kg/day, ig administered for 2 weeks by histomorhological analysis relative to control.
In assay [19] the test system is Rattus norvegicus. In words: Antiosteoporotic effect in OVX-induced Wistar rat osteoporosis model assessed as increase in trabecular number in left femur at 1 mg/kg/day, ig administered for 2 weeks by histomorhological analysis relative to control.
Assay [20] deals with Rattus norvegicus. In words: Antiosteoporotic effect in OVX-induced Wistar rat osteoporosis model assessed as decrease in trabecular separation in left femur at 1 mg/kg/day, ig administered for 2 weeks by histomorhological analysis relative to control.
In assay [21] the test system is Rattus norvegicus. Briefly: Antiosteoporotic effect in OVX-induced Wistar rat osteoporosis model assessed as increase in serum calcium level at 20 to 40 mg/kg/day, ig administered for 2 weeks by colorimetric method relative to control.
Assay [22] relates to Rattus norvegicus. In words: Antiosteoporotic effect in OVX-induced Wistar rat osteoporosis model assessed as increase in serum phosphorus level at 20 to 40 mg/kg/day, ig administered for 2 weeks by colorimetric method relative to control.
For assay [23], the system named is Rattus norvegicus. In words: Antiosteoporotic effect in OVX-induced Wistar rat osteoporosis model assessed as decrease in serum ALP level at 20 to 40 mg/kg/day, ig administered for 2 weeks by colorimetric method relative to control.
Assay [24] relates to Rattus norvegicus. Briefly: Antiosteoporotic effect in OVX-induced Wistar rat osteoporosis model assessed as decrease in serum TRAP level at 20 to 40 mg/kg/day, ig administered for 2 weeks by colorimetric method relative to control.
Assay [25] relates to Rattus norvegicus. In words: Antiosteoporotic effect in OVX-induced Wistar rat osteoporosis model assessed as increase in serum estradiol level at 40 mg/kg/day, ig administered for 2 weeks by RIA relative to control.
Assay [26] deals with Rattus norvegicus. Briefly: Antiosteoporotic effect in OVX-induced Wistar rat osteoporosis model assessed as increase in serum calcitonin level at 40 mg/kg/day, ig administered for 2 weeks by RIA relative to control.
The subject of assay [27] is Rattus norvegicus. Briefly: Antiosteoporotic effect in OVX-induced Wistar rat osteoporosis model assessed as decrease in serum CTX level at 20 to 40 mg/kg/day, ig administered for 2 weeks by ELISA relative to control.
In assay [28] the test system is Rattus norvegicus. In words: Antiosteoporotic effect in OVX-induced Wistar rat osteoporosis model assessed as decrease in urinary DPD/Cr level at 20 to 40 mg/kg/day, ig administered for 2 weeks by ELISA relative to control. Particulars: Urine.
The test system of assay [29] is Rattus norvegicus. In words: Antiosteoporotic effect in OVX-induced Wistar rat osteoporosis model assessed as increase in femur wet weight at 40 mg/kg/day, ig administered for 2 weeks relative to control.
For assay [30], the system named is Rattus norvegicus. In words: Antiosteoporotic effect in OVX-induced Wistar rat osteoporosis model assessed as increase in femur dry weight at 40 mg/kg/day, ig administered for 2 weeks relative to control.
Assay [31] has as its system Rattus norvegicus. In words: Antiosteoporotic effect in OVX-induced Wistar rat osteoporosis model assessed as increase in femur ash weight at 40 mg/kg/day, ig administered for 2 weeks relative to control.
Assay [32] relates to Rattus norvegicus. Briefly: Antiosteoporotic effect in OVX-induced Wistar rat osteoporosis model assessed as increase in bone calcium content at 40 mg/kg/day, ig administered for 2 weeks by flame atomic absorption spectroscopy relative to control.
Assay [33] has as its system Rattus norvegicus. Briefly: Antiosteoporotic effect in OVX-induced Wistar rat osteoporosis model assessed as increase in bone mineral density of left femur at 20 to 40 mg/kg/day, ig administered for 2 weeks by dual-energy X-ray absorptiometry relative to control.
Assay [34] has as its system Rattus norvegicus. In words: Antiosteoporotic effect in OVX-induced Wistar rat osteoporosis model assessed as increase in bone mineral content of left femur at 20 to 40 mg/kg/day, ig administered for 2 weeks by dual-energy X-ray absorptiometry relative to control.
For assay [35], the system named is Rattus norvegicus. In words: Antiosteoporotic effect in OVX-induced Wistar rat osteoporosis model assessed as increase in bone mineral density of third lumbar vertebra at 20 to 40 mg/kg/day, ig administered for 2 weeks by dual-energy X-ray absorptiometry relative to control.
Assay [36] relates to Rattus norvegicus. Briefly: Antiosteoporotic effect in OVX-induced Wistar rat osteoporosis model assessed as increase in bone mineral content of third lumbar vertebra at 20 to 40 mg/kg/day, ig administered for 2 weeks by dual-energy X-ray absorptiometry relative to control.
In assay [37] the test system is Rattus norvegicus. In words: Antiosteoporotic effect in OVX-induced Wistar rat osteoporosis model assessed as increase in ultimate load of left femur at 20 to 40 mg/kg/day, ig administered for 2 weeks by […] relative to control.
The test system of assay [38] is Rattus norvegicus. Briefly: Antiosteoporotic effect in OVX-induced Wistar rat osteoporosis model assessed as increase in ultimate load of third lumbar vertebra at 20 to 40 mg/kg/day, ig administered for 2 weeks by […] relative to control.
Assay [39] relates to Rattus norvegicus. Briefly: Antiosteoporotic effect in OVX-induced Wistar rat osteoporosis model assessed as increase in trabecular thickness in left femur at 20 to 40 mg/kg/day, ig administered for 2 weeks by histomorhological analysis relative to control.
The subject of assay [40] is Rattus norvegicus. Briefly: Antiosteoporotic effect in OVX-induced Wistar rat osteoporosis model assessed as increase in trabecular number in left femur at 20 to 40 mg/kg/day, ig administered for 2 weeks by histomorhological analysis relative to control.
The subject of assay [41] is Rattus norvegicus. Briefly: Antiosteoporotic effect in OVX-induced Wistar rat osteoporosis model assessed as decrease in trabecular separation in left femur at 20 to 40 mg/kg/day, ig administered for 2 weeks by histomorhological analysis relative to control.
Assay [42] has as its system Rattus norvegicus. In words: Antiosteoporotic effect in OVX-induced Wistar rat osteoporosis model assessed as increase in trabecular thickness in third lumbar vertebra at 20 to 40 mg/kg/day, ig administered for 2 weeks by histomorhological analysis relative to control.
Assay [43] concerns Rattus norvegicus. In words: Antiosteoporotic effect in OVX-induced Wistar rat osteoporosis model assessed as increase in trabecular number in third lumbar vertebra at 20 to 40 mg/kg/day, ig administered for 2 weeks by histomorhological analysis relative to control.
Assay [44] concerns Rattus norvegicus. Briefly: Antiosteoporotic effect in OVX-induced Wistar rat osteoporosis model assessed as decrease in trabecular separation in third lumbar vertebra at 20 to 40 mg/kg/day, ig administered for 2 weeks by histomorhological analysis relative to control.

The source made the active and inactive calls. The calls are words filed in the database; no cut-off is given here.

Consider two molecules from ChEMBL document CHEMBL3393012, “Osteoprotective effect of geraniin against ovariectomy-induced bone loss in rats” (Bioorg Med Chem Lett, 2015).

On to `C#C[C@@]1(O)[C@H](O)C[C@H]2[C@@H]3CCc4cc(OC5CCCC5)ccc4[C@H]3CC[C@@]21C`, for which the outcome in the assay with Rattus norvegicus [1], in the assay on Rattus norvegicus [2], in the assay with Rattus norvegicus [3], with Rattus norvegicus [4], in the assay on Rattus norvegicus [5] and in the assay on Rattus norvegicus [6] was Active. Also, the outcome in the assay on Rattus norvegicus [7], with Rattus norvegicus [8], in the assay on Rattus norvegicus [9], in the assay on Rattus norvegicus [10], with Rattus norvegicus [11] and in the assay with Rattus norvegicus [12] was Active. For the same molecule, the result in the assay with Rattus norvegicus [13], with Rattus norvegicus [14], in the assay with Rattus norvegicus [15], in the assay with Rattus norvegicus [16], in the assay on Rattus norvegicus [17] and in the assay on Rattus norvegicus [18] was Active. Further, the result in the assay on Rattus norvegicus [19] and with Rattus norvegicus [20] was Active.

As to `O=C1O[C@H]2[C@@H]3OC(=O)c4cc(O)c(O)c(O)c4-c4c(cc(O)c(O)c4O)C(=O)OC[C@H]2O[C@@H](OC(=O)c2cc(O)c(O)c(O)c2)[C@@H]3OC(=O)c2cc(O)c(O)c3c2[C@@H]2C1=CC(=O)[C@](O)(O3)C2(O)O`, the result in the assay on Rattus norvegicus [21], in the assay with Rattus norvegicus [23], in the assay with Rattus norvegicus [24], in the assay with Rattus norvegicus [25], in the assay with Rattus norvegicus [26] and in the assay on Rattus norvegicus [27] was Active. Also, the result in the assay on Rattus norvegicus [28], in the assay with Rattus norvegicus [29], with Rattus norvegicus [30], in the assay on Rattus norvegicus [31], with Rattus norvegicus [32] and in the assay on Rattus norvegicus [33] was Active. Further, the result in the assay on Rattus norvegicus [34], with Rattus norvegicus [35], with Rattus norvegicus [36], with Rattus norvegicus [37], with Rattus norvegicus [38] and in the assay on Rattus norvegicus [39] was Active. In addition, the outcome with Rattus norvegicus [40], in the assay with Rattus norvegicus [41], with Rattus norvegicus [42] and in the assay on Rattus norvegicus [43] was Active. Moreover, the result with Rattus norvegicus [22] and in the assay on Rattus norvegicus [44] was inactive.
